Assay results as given in US20030119719A1, “Use of endothelin conjugates in therapy, new endothelin conjugates, agents that contain the latter, and process for their production” (priority 1996, published 2003).

Columns and labels:
common carotid artery = test: Local application via administration catheter in the denuded common carotid artery, dynamic scintigraphy and autoradiography; settings: for course of the locally administered activity at the administration site after blood flow is restored: examination period of 1 hour, dynamic scintigrams, right common carotid artery
Source text: b) Local Application of the Tc-99m Complex of NH2-Asp-Gly-Gly-Cys-Gly-Cys-Phe-(D-Trp)-Leu-Asp-Ile-Ile-Trp-OH as well as Tc-99m-pertechnetate in the Common Carotid Artery of White New Zealand Rabbits
In anesthetized white New Zealand rabbits (3.5 kg), the right common carotid artery was opened up. A 2 F balloon catheter (from the Baxter Company) was inserted cranially through a cut, and a vascular area approximately 5 cm long was denuded twice with 0.9% saline after the catheter was inflated. Then, an administration catheter (coronary perfusion/infusion catheter, dispatch 3.0, Baxter Company) was fed to the above-denuded area. […] Then, the catheter was removed, and the blood flow after closure of the common carotid artery dextra was restored using a suture. Dynamic scintigrams were prepared over a period of 1 hour with the aid of a commercial gamma camera. Then, the animals were sacrificed, both carotids were removed, and an autoradiography was prepared.

arteriosclerotic plaque = test: In vivo and in vitro concentration in WHHL rabbits (gamma camera imaging, autoradiography of the aorta); settings: 2 mCi (1 ml) via an ear vein
Protocol: In Vivo and In Vitro Concentration of the ^99mTc-Complex of […] in WHHL Rabbits 2 mCi (1 ml) of the […]Tc-complex that is produced according to 5a) is administered to an anesthetized WHHL rabbit (Rompun/Ketavet 1:2) via an ear vein. WHHL rabbits have a high LDL level in the blood because of a deficient or defective LDL receptor and therefore create spontaneously arteriosclerotic vascular alterations. During the test period of 5 hours after the administration, static images of various exposure times and of various positions were produced with a gamma camera ([…]). 5 hours after the administration, the rabbit was sacrificed, and both an autoradiography of the aorta and a Sudan III coloring were carried out.

Row | Molecule | site of accumulation after being flushed from the vessel wall (common carotid artery; anterior summation scintigram 0-1 hour after local administration (FIG. 1)) | course of the locally administered activity at the administration site after blood flow is restored (common carotid artery) | course of the locally administered activity at the administration site after blood flow is restored (common carotid artery; listed as Tc-99m-pertechnetate) | time at which arteriosclerotic plaque in the area of the aortic arch could be visualized in vivo (arteriosclerotic plaque) [minutes p.i.]
1 | [O]=[99Tc](=[O])(=[O])[O-] [Tc-99m pertechnetate] | accumulates in the salivary glands as well as the thyroid | flushed from the vessel directly after the blood flow was regenerated | flushed from the vessel wall immediately after the blood flow is restored | 
2 | ^99mTc Complex of Asp-Gly-Gly-Cys-Gly-Cys-Phe-(D-Trp)-Leu-Asp-Ile-Ile-Trp |  |  |  | 10
